From US20230270893A1, “GALLIUM-LABELED GASTRIN ANALOGUE AND USE IN A METHOD OF IMAGING CCKB-RECEPTOR-POSITIVE TUMORS OR CANCERS” (DEBIOPHARM INTERNATIONAL S.A., priority 2020, published 2023)
Like-named read-outs stand apart in the source and are kept apart here.

Legend:
[1] = Ex vivo biodistribution study in naïve adult CD1 mice; conditions: for tissue uptake at 1 h: CD1, mouse, iv, 0.04 ug, total radioactivity; for tissue uptake at 1 h / Retention in stomach: 60 min post-injection
Method: (§1) Ex vivo biodistribution study. Female (FIG. 1A) and male (FIG. 1B) naïve adult CD1 mice (immunocompetent) were injected with [^68Ga]Ga-PPF11N ((0.19±0.04) MBq, 0.04 μg, 1.3 μg/kg). Mice were sacrificed at 5, 15, 30, 60, 120 and 240 min post-injection (N=4 each). A control group of mice of each sex was co-injected with a blocking dose of PPF11N peptide (40 μg, 1.3 mg/kg) and sacrificed at 60 min post-injection. Organs (blood, bone, brain, colon, gonad, kidney, liver, lung, muscle, pancreas, stomach) were weighted and assessed for activity concentration over time. Ex vivo biodistribution in all resected tissues was computed as the percentage of injected dose per gram of tissue (% ID/g).
(§2) Immunocompetent CD1 mice (N=28 males and N=28 females on study, N=3 males and N=3 females spare; males 9 weeks old, females 5 weeks old at delivery) were acclimatized for 7 days, inspected daily and weighed on the day of injection. For each sex, mice were randomly allocated to 7 groups (N=4 mice per group) and each group was injected (bolus i.v. route into a laterial tail vein) with [^68Ga]Ga-PPF11N peptide ((0.19±0.04) MBq in 0.15 mL; (0.039±0.02) μg peptide in non-blocked groups. Following radiolabeling, each product batch was assessed by iTLC and HPLC to ensure the material met the target criteria. For the blocked group, 38±1 μg of peptide was injected. At 5 min, 15 min, 30 min, 1 h, 2 h and 4 h post-injection mice (n=4 per time point for each sex) were sacrificed by cervical dislocation and tissues (blood, bone, brain, colon, gonad, kidney, liver, lung, muscle, pancreas, stomach) were resected, weighed and the radioactivity was counted with a gamma-counter along with calibration standards (dilution series in triplicate). The study design is depicted in the table below.
The activity of each collected tissue was measured in units of counts per min (CPM). Triplicate aliquots of serial dilutions of the radiotracer were also assayed in the gamma counter in order to calculate a conversion factor to units of activity (% ID/g). Measured values were decay corrected and adjusted to account for background radiation

[2] = biological target: T1, CCK2R (Mus musculus, UniProt P56481); assay: Peptide blocking experiment (co-injection of blocking dose of PPF11N) in the ex vivo biodistribution study; design: species or system CD1 mice; conditions: male and female mice, 60 min post-injection, PPF11N 40 μg per mouse
T1 construct: from tissue; host or cells: organs of naive CD1 mice (stomach and others), in vivo injection with ex vivo gamma counting
T1 sequence (P56481 1-453): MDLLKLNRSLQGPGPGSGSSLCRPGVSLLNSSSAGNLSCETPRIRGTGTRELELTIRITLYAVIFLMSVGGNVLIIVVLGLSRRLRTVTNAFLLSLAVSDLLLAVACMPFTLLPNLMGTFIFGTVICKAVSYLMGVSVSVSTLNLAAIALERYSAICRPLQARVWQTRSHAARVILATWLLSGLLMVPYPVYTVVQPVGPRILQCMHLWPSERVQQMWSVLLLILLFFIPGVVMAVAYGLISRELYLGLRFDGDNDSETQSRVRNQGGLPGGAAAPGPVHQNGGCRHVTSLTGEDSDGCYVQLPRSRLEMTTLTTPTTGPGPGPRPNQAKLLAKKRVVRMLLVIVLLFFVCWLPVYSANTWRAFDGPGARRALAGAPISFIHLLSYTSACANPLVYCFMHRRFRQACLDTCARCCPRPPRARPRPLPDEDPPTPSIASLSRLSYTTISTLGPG
Method: as §1, §2
(§3) The activity of each collected tissue was measured in units of counts per min (CPM). […] Measured values were decay corrected and adjusted to account for background radiation

[3] = tested on: T2, CCK2R; assay: as above; design: species or system CD1 mice; conditions: CD1, stomach, iv, total radioactivity, 60 min post-injection, co-injected PPF11N 40 μg per mouse (1.3 mg/kg), read-out: Concentration in the stomach with peptide blocking dose
T2 construct: from tissue; host or cells: organs of naive CD1 mice (stomach and others), in vivo injection with ex vivo gamma counting
Method: as §1, §2, §3

SMILES: CCCC[C@H](NC(=O)[C@H](Cc1c[nH]c2ccccc12)NC(=O)CNC(=O)[C@H](Cc1ccc(O)cc1)NC(=O)[C@H](C)NC(=O)[C@@H](CCC(=O)O)NC(=O)[C@@H](CCC(=O)O)NC(=O)[C@@H](CCC(=O)O)NC(=O)[C@@H](CCC(=O)O)NC(=O)[C@@H](CCC(=O)O)NC(=O)[C@@H](CCC(=O)O)NC(=O)CN1CCN(CC(=O)O)CCN(CC(=O)O)CCN(CC(=O)O)CC1)C(=O)N[C@@H](CC(=O)O)C(=O)N[C@@H](Cc1ccccc1)C(N)=O [^68Ga-PPF11N, ^68Ga-Y-DGlu-DGlu-DGlu-DGlu-DGlu-DGlu-Ala-Tyr-Gly-Trp-Nle-Asp-Phe-NH2, metal not drawn]
- tissue uptake at 1 h ([1]; blood, female mice, i.v., 0.04 μg peptide, read-out: Blood concentration): 0.4 ± 0.12 %ID/g
- tissue uptake at 1 h ([1]; blood, male mice, i.v., 0.04 μg peptide, read-out: Blood concentration): 0.46 ± 0.35 %ID/g
- tissue uptake at 1 h ([1]; kidney, female mice, read-out: Retention in kidneys): 2.98 ± 0.53 %ID/g
- tissue uptake at 1 h ([1]; kidney, male mice, read-out: Retention in kidneys): 3.38 ± 0.67 %ID/g
- tissue uptake at 1 h ([1]; muscle, female mice, read-out: Activity concentration in muscle): 0.16 ± 0.09 %ID/g
- tissue uptake at 1 h ([1]; muscle, male mice, read-out: Activity concentration in muscle): 0.1 ± 0.03 %ID/g
- tissue uptake at 1 h ([1]; stomach, female mice, read-out: Retention in stomach): 1.71 ± 0.56 %ID/g
- tissue uptake at 1 h ([1]; stomach, male mice, read-out: Retention in stomach): 1.93 ± 0.18 %ID/g
- Retention in stomach ([1]; female mice): 1.71±0.56 % ID/g
- Clearance from organs ([1]; male and female mice, 5 to 240 min post-injection): rapid clearance from all organs except for kidneys and stomach
- Retention in stomach ([1]; male mice): 1.93±0.18 % ID/g
- Effect of peptide blocking dose on kidney exposure [2]: unable to reduce kidney exposure
- tissue uptake at 1 h ([3]; female mice): 0.19 ± 0.02 %ID/g
- tissue uptake at 1 h ([3]; male mice): 0.32 ± 0.07 %ID/g
